According to ChEMBL document CHEMBL1141454, “Structural and functional basis of cyclooxygenase inhibition” (J Med Chem, 2007):

Tests used:
[1] = target: T1, Prostaglandin G/H synthase 2 (Homo sapiens, UniProt P35354)
T1 sequence (P35354 whole entry): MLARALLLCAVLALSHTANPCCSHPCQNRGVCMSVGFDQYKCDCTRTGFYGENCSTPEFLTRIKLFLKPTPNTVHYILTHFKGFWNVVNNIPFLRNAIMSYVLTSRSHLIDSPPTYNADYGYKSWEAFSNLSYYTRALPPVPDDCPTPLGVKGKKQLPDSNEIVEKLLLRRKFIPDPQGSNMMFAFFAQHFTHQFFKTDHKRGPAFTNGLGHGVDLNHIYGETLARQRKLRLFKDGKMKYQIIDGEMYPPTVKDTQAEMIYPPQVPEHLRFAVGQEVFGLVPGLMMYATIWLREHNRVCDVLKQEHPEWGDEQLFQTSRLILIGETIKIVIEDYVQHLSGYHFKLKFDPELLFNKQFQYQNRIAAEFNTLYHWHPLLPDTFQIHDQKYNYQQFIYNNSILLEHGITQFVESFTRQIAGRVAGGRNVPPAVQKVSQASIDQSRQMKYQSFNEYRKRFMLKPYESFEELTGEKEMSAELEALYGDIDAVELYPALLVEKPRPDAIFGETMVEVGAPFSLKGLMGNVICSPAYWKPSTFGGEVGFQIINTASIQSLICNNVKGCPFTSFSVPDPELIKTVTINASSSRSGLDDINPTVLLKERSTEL

[2] = target: Prostaglandin G/H synthase 1 (Homo sapiens, UniProt P23219)
[3] = Inhibition of mouse COX2 R120A mutant
[4] = Inhibition of mouse COX2 Y355F mutant
[5] = Inhibition of mouse COX2 S530A mutant
[6] = Inhibition of cyclooxygenase
[7] = Selectivity for COX1 over COX2
Mus musculus [8] = species: Mus musculus; assay: Inhibition of mouse COX2 V349A mutant
Mus musculus [9] = species: Mus musculus; assay: Inhibition of mouse COX2 V349L mutant

Sequence of Prostaglandin G/H synthase 1 (P23219 whole entry): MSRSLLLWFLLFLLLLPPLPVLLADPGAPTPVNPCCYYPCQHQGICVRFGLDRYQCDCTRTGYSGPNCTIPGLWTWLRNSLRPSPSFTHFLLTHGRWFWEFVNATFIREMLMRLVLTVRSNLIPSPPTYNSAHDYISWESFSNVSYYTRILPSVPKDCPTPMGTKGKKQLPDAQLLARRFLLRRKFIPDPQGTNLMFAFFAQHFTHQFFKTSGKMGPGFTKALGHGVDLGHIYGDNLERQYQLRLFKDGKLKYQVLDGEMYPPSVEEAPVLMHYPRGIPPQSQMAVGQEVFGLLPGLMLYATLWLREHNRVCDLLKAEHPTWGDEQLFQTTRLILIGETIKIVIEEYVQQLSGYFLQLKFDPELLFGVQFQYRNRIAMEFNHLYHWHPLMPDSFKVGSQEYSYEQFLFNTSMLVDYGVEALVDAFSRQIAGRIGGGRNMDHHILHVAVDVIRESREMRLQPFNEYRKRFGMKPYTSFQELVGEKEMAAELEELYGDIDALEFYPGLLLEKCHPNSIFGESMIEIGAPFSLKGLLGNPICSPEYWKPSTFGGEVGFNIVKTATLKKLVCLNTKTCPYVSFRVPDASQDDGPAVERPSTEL

IC50 [1] [µM] | IC50 [2] [µM] | Structure (SMILES) | also measured
0.007 | > 10 | Cc1ccc(Nc2c(F)cccc2Cl)c(CC(=O)O)c1 [LUMIRACOXIB] | –
– | – | O=C(O)Cc1ccccc1Nc1c(Cl)cccc1Cl [DICLOFENAC] | IC50 [3]: 0.257 µM; IC50 [4]: 0.137 µM; IC50 [5]: > 50 µM
– | > 66 | COc1ccc2c(c1)c(CCNC(=O)c1ccc(Cl)cc1)c(C)n2Cc1ccc(Br)cc1 | –
– | > 66 | COc1ccc2c(c1)c(CC(=O)OCCc1ccccc1)c(C)n2C(=O)c1ccc(Cl)cc1 | –
– | – | CC(=O)Oc1ccccc1C(=O)O [ASPIRIN] | Ki [6]: 20000 µM; Selectivity ratio [7]: 10
– | > 66 | COc1ccc2c(c1)c(CC(=O)NCCc1ccccc1)c(C)n2C(=O)c1ccc(Cl)cc1 | –
0.1 | > 1 | C/C(=N/OCc1ccccc1Nc1c(Cl)cccc1Cl)C(=O)O | –
0.1 | 7.7 | CCOc1cccc(OCC)c1-c1ccc(C(C)C(=O)O)cc1F (configuration not stated) | –
– | > 66 | COc1ccc2c(c1)c(CCOC(=O)c1ccc(Cl)cc1)c(C)n2Cc1ccc(Br)cc1 | –
– | – | COc1ccc2c(c1)c(CC(=O)O)c(C)n2C(=O)c1ccc(Cl)cc1 | Activity (Mus musculus [8]): 0.08 µM; Activity (Mus musculus [9]): 4 µM
